Data on 10 compounds can be found in patent publication US5773424A, “Treatment of toxoplasmosis” (priority 1994, dated 1998).

“Also recorded” adds a separate entry of the source. Like-named read-outs stand apart in the source and are kept apart here.

Data set [1] has as its system Toxoplasma gondii grown in human fibroblasts. The data set is described as follows: Incorporation of radiolabeled uracil (parasite survival). In kind it is cell-based. The note with it: for activity at 5 µM / activity at 10 µM / activity at 25 µM / activity at 50 µM: Toxoplasma gondii, Fibroblast, read-out: percent survival of Toxoplasma gondii grown in human fibroblasts. The protocol:
Incorporation of Radiolabeled Uracil. […] Uptake and incorporation of radiolabeled uracil into nucleic acids of T. gondii were carried out, at least in triplicates, in tissue culture, using monolayers of human foreskin fibroblasts infected with T. gondii. The fibroblasts were cultured in no more than 30 passages in Dulbecco's modified Eagle medium, containing 100 units/mL penicillin G and 100 μg/mL streptomycin sulfate, and 10% FBS, pH 7.2. Briefly, confluent cells (4-5 day incubation) were cultured for 24 hours in the 24-well flat bottom microtiterplates (~5×10^5 /1 mL/well) and incubated at 37° C. in 5% CO2, 95% air to allow the cells to attach. The medium was then removed and the cells were infected with isolated T. gondii in medium with 3% FBS (1 parasite/cell). After 1 hour incubation, the cultures were washed with media with 10% FBS to remove extracellular parasites. FBS was maintained at a final concentration of 10%. […] After an additional 18 hours incubation, the medium was replaced with 1 mL drug free media containing […] (2 μCi/mL) and incubated for another 6 hours, after which the media was removed. The fibroblasts were released from the wells by trypsinization with the addition of 200 μL trypsin/EDTA (2.5×) to each well. After 10 minutes incubation, 1 mL of ice cold 10% trichloroacetic acid (TCA) was added to each well. The plates were then placed on a shaker to insure the detachment of the cells. The suspended contents of each well were filtered through GF/A 2.4 cm glass microfiber filters (Whatman, Hillsboro, Oreg.), which were prewashed each with 1 mL double distilled H2 O and dried. After filtration, the filters were washed with 10 mL methanol, left to dry, and then placed in scintillation vials containing 5 mL of Econo-Safe scintillation fluor (Research Products International Corp., Mount Prospect, Ill.), and radioactivity was counted using an LS5801 Beckman scintillation counter.

A short description of data set [2]: Toxicity of compounds, MTT assay. In kind it is cell-based, human. The note with it: human, foreskin fibroblasts, MTT, 48 hours, read-out: percent survival of uninfected human fibroblasts. On the procedure: (§1) Toxicity of compounds. Toxicity of the different doses of the various analogues were performed at least in triplicates, using a modification of the Microculture Tetrazolium (MTT) assay and uninfected monolayers of human foreskin fibroblasts. Briefly, confluent cells were incubated for at least 24 hours in the 96-well flat bottom microtiterplates (~10^5 /200 μL/well) and incubated at 37° C. in 5% CO2, 95% air to allow the cells to attach. The medium was then replaced with 200 μL of fresh medium. […] The cultures were then incubated for 48 hours, after which 50 μL of sterile MTT solution (2 mg/1 mL PBS) was added to each well. MTT solution was sterilized by filtration through 0.22 μm filters (Costar, Cambridge, Mass.). After 4 hours incubation, the medium was removed and 100 μL of dimethylsulfoxide (DMSO) was added to each well and the plates were shaken gently for 2-3 minutes to dissolve the formed formazan crystals. The absorbance was measured at 540 nm, using a computerized microtiterplate reader (Themomax, Molecular Division)
(Tetrazolium dyes change colour on reduction, which living cells bring about.)

Data set [3] relates to uninfected human foreskin fibroblasts. As to the kind of experiment: Toxicity of compounds, MTT assay. The data set is classed as cell-based. Particulars: for Toxicity to host cells (human fibroblasts), in words: therapeutic doses (5-50 μM tested). The protocol: as §1
The subject of data set [4] is Toxoplasma gondii RH strain tachyzoites. As to the kind of experiment: Chemotherapy of Toxoplasma-infected mice. In kind it is in vivo. On the procedure:
Chemotherapy of Toxoplasma-Infected Mice. Female CD-1 mice, approximately 22 g (Charles River Laboratories, Wilmington, Mass.), were infected with 200 RH strain tachyzoites/mouse by i.p. injection. The treatment group received 100 mg/kg NBMPR-P i.p. injections every 8 hours on Days 0, 2, 4 and 5, in proportion of 0.1 ml/10 g. Mice were maintained under controlled temperature (25° C.) and light (12/12 hours, light/dark), food and water ad libitum, and survival was monitored daily.
Each mouse was infected with 200 tachyzoites and the treatment group received 100 mg/kg NBMPR-P i.p. injections every 8 hours on Days 0, 2, 4 and 5 in proportion of 0.1 ml/10 g. The survivorship of the treated mice can be improved by manipulation of the dose and regimen of NBMPR.

Where [5] appears, read: 5 μM, [5,6-3H]uracil incorporation.
[6] abbreviates: 10 μM, [5,6-3H]uracil incorporation.
Where [7] appears, read: 25 μM, [5,6-3H]uracil incorporation.
The mark [8] stands for this setting: 50 μM, [5,6-3H]uracil incorporation.
The mark [9] stands for this setting: survivors/total, 100 mg/kg i.p. every 8 hours on Days 0, 2, 4 and 5.

Regarding `[N-]=[N+]=Nc1ccc(CNc2ncnc3c2ncn3[C@@H]2O[C@H](CO)[C@@H](O)[C@H]2O)cc1`, the activity at 5 µM in data set [1] (setting [5]) is 36.9%. In addition, in data set [1] (setting [6]), the activity at 10 µM is 17%. Further, the activity at 25 µM in data set [1] (setting [7]) worked out at 15.1%. The activity at 50 µM in data set [1] (setting [8]) stood at 24.5%. In data set [2], the viability at 48 h, 5 µM amounted to 97.3%; the viability at 48 h, 10 µM came out at 90.3%; the viability at 48 h, 25 µM was 88.9%; the viability at 48 h, 50 µM was 81.5%.

With `O=[N+]([O-])c1ccc(CNc2ncnc3c2ncn3[C@@H]2O[C@H](CO)[C@@H](O)[C@H]2O)cc1`, in data set [1] (setting [5]), the activity at 5 µM came to 35.9%. The activity at 10 µM in data set [1] (setting [6]) worked out at 27.6%. Also, in data set [1] (setting [7]), the activity at 25 µM worked out at 21.6%. Besides, the activity at 50 µM in data set [1] (setting [8]) was found to be 8.4%. In addition, in data set [2], the viability at 48 h, 5 µM turned out to be 104%; the viability at 48 h, 10 µM stood at 102%; the viability at 48 h, 25 µM amounted to 92.3%; the viability at 48 h, 50 µM worked out at 107%.

As to `O=[N+]([O-])c1ccc(C[Se]c2ncnc3c2ncn3[C@@H]2O[C@H](CO)[C@@H](O)[C@H]2O)cc1` [Compound 24, 6-(p-Nitrobenzyl)selenopurine riboside], in data set [1], the activity at 5 µM was found to be 67.8%, the activity at 10 µM was 3.03%, the activity at 25 µM was determined as 0% and the activity at 50 µM came out at 0%. Further, in data set [2], the viability at 48 h, 5 µM stood at 89.3%; the viability at 48 h, 10 µM stood at 90.1%; the viability at 48 h, 25 µM came out at 63.4%; the viability at 48 h, 50 µM stood at 39.6%.

With `O=C(Nc1ncnc2c1ncn2[C@@H]1O[C@H](CO)[C@@H](O)[C@H]1O)c1ccccc1` [Compound 44, N^6 -Benzoyladenosine], the activity at 5 µM in data set [1] (setting [5]) worked out at 96.4%. Besides, the activity at 10 µM in data set [1] (setting [6]) came out at 94.6%. The activity at 25 µM in data set [1] (setting [7]) is 112%. The activity at 50 µM in data set [1] (setting [8]) was 100%. Besides, in data set [2], the viability at 48 h, 5 µM is 94.4%; the viability at 48 h, 10 µM is 94.1%; the viability at 48 h, 25 µM worked out at 97.6%; the viability at 48 h, 50 µM stood at 99.3%.

As for `OC[C@H]1O[C@@H](n2cnc3c(NCc4ccccc4)ncnc32)[C@H](O)[C@@H]1O` [Compound 45, N^6 -Benzyladenosine], the activity at 5 µM in data set [1] (setting [5]) came to 62.8%. In addition, the activity at 10 µM in data set [1] (setting [6]) stood at 41.8%. Further, the activity at 25 µM in data set [1] (setting [7]) amounted to 52.9%. Further, in data set [1] (setting [8]), the activity at 50 µM turned out to be 26.3%. In data set [2], the viability at 48 h, 5 µM came to 46.3%; the viability at 48 h, 10 µM was 21.8%; the viability at 48 h, 25 µM was 36.5%; the viability at 48 h, 50 µM turned out to be 31%. Further, the “Toxicity to host cells (human fibroblasts), in words” value in data set [3] is “toxic to host cells at therapeutic doses”.

In the case of `Nc1ccc(CNc2ncnc3c2ncn3[C@@H]2O[C@H](CO)[C@@H](O)[C@H]2O)cc1` [Compound 46, N^6 -(p-Aminobenzyl)adenosine], the activity at 5 µM in data set [1] (setting [5]) stood at 100%. The activity at 10 µM in data set [1] (setting [6]) was 95.6%. Further, the activity at 25 µM in data set [1] (setting [7]) is 108%. Besides, in data set [1] (setting [8]), the activity at 50 µM stood at 120%. Further, in data set [2], the viability at 48 h, 5 µM stood at 93.3%; the viability at 48 h, 10 µM was determined as 91.9%; the viability at 48 h, 25 µM was 101%; the viability at 48 h, 50 µM was determined as 101%.

In the case of `COc1ccc(C(=O)Nc2ncnc3c2ncn3[C@@H]2O[C@H](CO)[C@@H](O)[C@H]2O)cc1` [Compound 47, N^6 -(p-Methoxybenzolyl)adenosine (N^6 -anisoyladenosine)], the activity at 5 µM in data set [1] (setting [5]) was found to be 94.2%. Also, in data set [1] (setting [6]), the activity at 10 µM was found to be 93.1%. In addition, the activity at 25 µM in data set [1] (setting [7]) was determined as 104%. Further, in data set [1] (setting [8]), the activity at 50 µM was found to be 125%. In data set [2], the viability at 48 h, 5 µM came to 92.9%; the viability at 48 h, 10 µM was 92.6%; the viability at 48 h, 25 µM was 99.2%; the viability at 48 h, 50 µM amounted to 97.4%.

Consider `O=[N+]([O-])c1ccc(CSc2ncnc3c2ncn3[C@@H]2O[C@H](COP(=O)(O)O)[C@@H](O)[C@H]2O)cc1` [NBMPR-P, 6-[4-nitrobenzylthio]-9-β-D-ribofuranosyl purine 5'-monophosphate], for which the activity at 5 µM in data set [1] (setting [5]) is 75.3%. For the same compound, in data set [1] (setting [6]), the activity at 10 µM was 53.3%. The activity at 25 µM in data set [1] (setting [7]) worked out at 21.4%. Besides, the activity at 50 µM in data set [1] (setting [8]) amounted to 10.2%. For the same compound, the “Effect on T. gondii grown in human fibroblasts, in words” value in data set [1] (in vitro) is reported as “inhibited; also recorded: kill T. gondii grown in human fibroblasts in a dose dependent manner; also recorded: effectively eliminate T. gondii parasites”. Besides, in data set [2], the viability at 48 h, 5 µM is 103%; the viability at 48 h, 10 µM worked out at 94.6%; the viability at 48 h, 25 µM was determined as 93.6%; the viability at 48 h, 50 µM came out at 96.1%. Also, the “Effect on host (mammalian) cells, in words” value in data set [3] (doses up to 100 μM) is reported as “did not affect host cells; also recorded: without affecting mammalian cells”. The “Toxicity to host cells (human fibroblasts), in words” value in data set [3] is given as “no significant toxic effect”. The “life span of infected mice” value in data set [4] (increased from 6 days without treatment) was found to be 8 days. In data set [4] (setting [9]), the “Survival Day 7” value is 3/3, the “Survival Day 8” value was 2/3 and the “Survival Day 9” value is recorded as 0/3. Moreover, the “Survival Day 6” value in data set [4] (survivors/total, 100 mg/kg i.p. every 8 hours on Days 0, 2, 4 and 5, untreated 0/3) is reported as 3/3.

Regarding `CCc1nc(N)nc(N)c1-c1ccc(Cl)cc1` [Pyrimethamine, reference compound], the activity at 5 µM in data set [1] (setting [5]) stood at 25.9%. Further, the activity at 10 µM in data set [1] (setting [6]) turned out to be 12.9%. The activity at 25 µM in data set [1] (setting [7]) was 10.2%. In addition, the activity at 50 µM in data set [1] (setting [8]) was 13.8%. In data set [2], the viability at 48 h, 5 µM is 104%; the viability at 48 h, 10 µM was 98.8%; the viability at 48 h, 25 µM stood at 108%; the viability at 48 h, 50 µM came to 118%.

Take `Nc1ccc(S(=O)(=O)Nc2ncccn2)cc1` [Sulfadiazine, reference compound]: in data set [1] (setting [5]), the activity at 5 µM was 74.6%. In data set [1] (setting [6]), the activity at 10 µM was 64.8%. The activity at 25 µM in data set [1] (setting [7]) was 66.3%. In data set [1] (setting [8]), the activity at 50 µM worked out at 66.3%. Also, in data set [2], the viability at 48 h, 5 µM was 98.2%; the viability at 48 h, 10 µM was found to be 99.7%; the viability at 48 h, 25 µM stood at 99.8%; the viability at 48 h, 50 µM is 102%.
